Results published in article PMC8214221, “Sequence determinants in the cathelicidin LL-37 that promote inflammation via presentation of RNA to scavenger receptors” (The Journal of Biological Chemistry, 2021).
In brackets after ≈: the same amount, converted by molar mass. Where two headings read alike, the source gives them in different places. Residues, ends and D or L forms follow the SMILES beside them.

Columns and labels:
[1] = test system: methicillin-resistant Staphylococcus aureus strain USA300; assay type: cell-based; conditions: for Antimicrobial potency against S. aureus USA300 compared with LL-34 parent peptide: MIC comparison with parent (MIC 25 μM), 18 h
Description: Since LL-34 was the minimal truncation mutant of LL-37 that retained both antimicrobial and immune modulatory activity, we prepared a series of synthetic peptides with sequential substitutions of alanine at each amino acid position of the LL-34 parent peptide (Table 1). We compared the minimum inhibitory concentration (MIC) for the LL-34 parent peptide and the alanine mutants (LL-34 peptides—L1A and R34A) against methicillin-resistant Staphylococcus aureus strain USA300 (Fig. 1A). LL-34 peptides were incubated at concentrations of 0 to 100 μM with bacteria. The minimal concentration at which no growth was observed was noted after 18 h of incubation. […] Because of these changes in the MIC against S. aureus between the mutants, we investigated the effective toxicity profile of the peptides in normal human epidermal keratinocytes (NHEKs) by lactate dehydrogenase (LDH) release assay (Table 1). […] Most other peptides were cytotoxic at a minimal concentration of 10 μM, whereas LL-34—K15A was toxic at a concentration of 2.5 μM.
Methicillin-resistant S. aureus USA300 and methicillin-sensitive S. aureus SA113 (American Type Culture Collection 35556) were cultured in 3% tryptic soy broth overnight at 37 °C with shaking at 250 rpm. GAS M49 strain NZ131 was cultured in Todd Hewitt broth supplemented with 1% yeast extract overnight at 37 °C without shaking. E. coli R1 strain RS218 was cultured in LB broth overnight at 37 °C with shaking at 250 rpm. MIC values were determined using a round-bottom 96-well microdilution method with RPMI cell culture media (as a source of Ca^2+ and Mg^2+) supplemented with tryptic soy broth, Todd Hewitt broth/yeast extract, or LB to facilitate growth of the respective bacterial strains. Overnight bacterial cultures were subcultured into fresh broth and grown to midlate log phase indicated by an absorbance at 600 nm value between 0.8 and 1.0 for each bacterial strain. The absorbance was then normalized to provide a concentration of 1 × 10^7 colony-forming units/ml in RPMI medium. The LL-34 parent and alanine scan mutants were serially diluted into the 96-well microtiter plates containing prewarmed RPMI bacterial growth medium. A 10 μl aliquot of the midlate log phase bacteria was inoculated into the 96-well microtiter plates that contained 95 μl of RPMI medium with or without the LL-34 peptide dilutions and incubated for 16 to 18 h at […] with shaking at 200 rpm. Inhibition of growth was determined by measuring the absorbance at 600 nm readings of each well using a microplate reader (Infinite M200 Pro; Tecan). The MIC of each bacterial strain was determined by the lowest peptide concentration that inhibited more than 80% bacterial growth.

[2] = test system: NHEKs, IL-6 secretion in response to U1 dsRNA; experiment: IL-6 secretion ELISA in NHEKs; assay type: cell-based, human; conditions: U1 dsRNA 2.5 μg/ml + peptide 2 μM, 18 h, n = 3
Description: Protein levels of human IL-6 were analyzed from cell supernatant with ELISA (n = 3). Corresponding MIC values of LL-34 peptides L1A–R34A against Staphylococcus aureus USA300 are shown in the heat map. B, human dermal endothelial cells (HDMECs) were treated with either U1 dsRNA (2.5 μg/ml) or a combination of U1 dsRNA (2.5 μg/ml) and LL-34 peptides (Pep 1–Pep 34 and Pep–parent LL-34) at 2 μM for 18 h. IL-6 ELISA results are shown (n = 3). Green bars denote loss of IL-6 protein secretion compared with parent control shown in red. C, helical wheel plot for LL-34. Amino acids with green circles denote specific residues where replacement with an alanine caused the loss of IL-6 secretion compared with parent LL-34 peptide in NHEKs cotreated with U1 dsRNA. D, in the helical wheel plot for LL-34, circled green amino acids indicate that a substitution caused a loss of vetting in HDMEC. E–H, NHEKs were treated with LL-34-parent peptide (LL-34-P), LL-34-F5A, LL-34-I24A, LL-34-F27A, and LL-34-L31A at 2 μM, either individually or in combination with U1 dsRNA (2.5 μg/ml) for 8 h. Gene expression of IL-6, IFNB1, TSLP, and CXCL10 was assessed with qRT-PCR. GAPDH was used as a reference gene (n = 3) (∗p < 0.05; ∗∗∗∗p < 0.0001). One way-ANOVA was used. IL-6, interleukin 6; LL-34, 34-amino acid peptide; MIC, minimum inhibitory concentration, ns, not significant.
We hypothesized that sequential replacement of each amino acid in LL-34 peptide with a neutral amino acid alanine might reveal the amino acid residues critical for its ability to induce inflammation in response to U1 dsRNA. First, we treated NHEKs and human dermal microvascular endothelial cells (HDMECs) with LL-34 parent peptide and each of the 34 mutants at 2 μM for 18 h and measured the secretion of interleukin 6 (IL-6) in the supernatant by ELISA (Fig. S1, A and B). […] We then treated both NHEKs and HDMECs with a combination of U1 dsRNA (2.5 μg/ml) and the LL-34 parent/mutant peptides at 2 μM for 18 h and measured IL-6 secretion (Fig. 1, A–C). […] A similar pattern of IL-6 release was observed when HDMECs were treated with the peptide library and U1 dsRNA (Fig. 1B).
Cell culture supernatant was frozen at −80 °C until use for analysis. ELISA was performed with sandwich ELISA kits (R&D Systems) and quantified on a Spectramax Absorbance reader (Molecular Biosystems). Data were analyzed with GraphPad.

[3] = test system: normal human epidermal keratinocytes (NHEKs); experiment: LDH release cytotoxicity assay in keratinocytes; assay type: cell-based; conditions: minimal concentration giving 50% LDH release by NHEKs
Outline: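 Normal human epidermal keratinocytes were exposed to LL-34 parent and alanine-substituted peptides. Cytotoxicity was read as LDH release in fresh culture supernatants after treatment, using a commercial kit, and reported as the minimal concentration showing toxicity.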

Structure (SMILES) | Antimicrobial potency against S. aureus USA300 compared with LL-34 parent peptide [1] | Antimicrobial potency against S. aureus USA300 compared with LL-34 parent peptide ([1]; listed as IL3a) | IL-6 protein secretion, cotreatment with U1 dsRNA, vs U1 dsRNA + LL-34 parent [2] | Minimal cytotoxic concentration in NHEK (LD50) [3] [µM] | MIC against S. aureus USA300 ([1]; USA300, 18 h) [µM]
CC[C@H](C)[C@H](NC(=O)[C@H](CCCNC(=N)N)NC(=O)[C@H](CCC(N)=O)NC(=O)[C@@H](NC(=O)[C@@H](NC(=O)[C@H](CCCNC(=N)N)NC(=O)[C@H](CCCCN)NC(=O)[C@H](Cc1ccccc1)NC(=O)[C@H](CCC(=O)O)NC(=O)[C@H](CCCCN)NC(=O)CNC(=O)[C@H](C)NC(=O)[C@H](CCCCN)NC(=O)[C@H](CCC(=O)O)NC(=O)[C@H](CCCCN)NC(=O)[C@H](CO)NC(=O)[C@H](CCCCN)NC(=O)[C@H](CCCNC(=N)N)NC(=O)[C@H](Cc1ccccc1)NC(=O)[C@H](Cc1ccccc1)NC(=O)[C@H](CC(=O)O)NC(=O)CNC(=O)[C@H](CC(C)C)NC(=O)[C@@H](N)CC(C)C)[C@@H](C)CC)C(C)C)C(=O)N[C@@H](CCCCN)C(=O)N[C@@H](CC(=O)O)C(=O)N[C@@H](Cc1ccccc1)C(=O)N[C@@H](CC(C)C)C(=O)N[C@@H](CCCNC(=N)N)C(=O)N[C@@H](CC(N)=O)C(=O)N[C@@H](CC(C)C)C(=O)N[C@H](C(=O)N1CCC[C@H]1C(=O)N[C@@H](CCCNC(=N)N)C(=O)O)C(C)C [LL-34—I13A] (H-LLGDFFRKSKEKAGKEFKRIVQRIKDFLRNLVPR-OH) | killed S. aureus USA300 more potently | gained antimicrobial activity | reduced secretion of IL-6 protein | 5 | 
CC[C@H](C)[C@H](NC(=O)[C@H](CCCCN)NC(=O)[C@H](CCC(=O)O)NC(=O)[C@H](CCCCN)NC(=O)[C@H](CO)NC(=O)[C@H](CCCCN)NC(=O)[C@H](CCCNC(=N)N)NC(=O)[C@H](Cc1ccccc1)NC(=O)[C@H](Cc1ccccc1)NC(=O)[C@H](CC(=O)O)NC(=O)CNC(=O)[C@H](CC(C)C)NC(=O)[C@@H](N)CC(C)C)C(=O)NCC(=O)N[C@@H](CCCCN)C(=O)N[C@@H](CCC(=O)O)C(=O)N[C@@H](Cc1ccccc1)C(=O)N[C@@H](CCCCN)C(=O)N[C@@H](CCCNC(=N)N)C(=O)N[C@H](C(=O)N[C@H](C(=O)N[C@@H](CCC(N)=O)C(=O)N[C@@H](CCCNC(=N)N)C(=O)N[C@H](C(=O)N[C@@H](CCCCN)C(=O)N[C@@H](CC(=O)O)C(=O)N[C@@H](Cc1ccccc1)C(=O)N[C@@H](CC(C)C)C(=O)N[C@@H](CCCNC(=N)N)C(=O)N[C@@H](CC(N)=O)C(=O)N[C@@H](CC(C)C)C(=O)N[C@H](C(=O)N1CCC[C@H]1C(=O)N[C@@H](C)C(=O)O)C(C)C)[C@@H](C)CC)C(C)C)[C@@H](C)CC [LL-34—R34A] (H-LLGDFFRKSKEKIGKEFKRIVQRIKDFLRNLVPA-OH) | reduced MIC compared with the parent peptide |  |  | 10 | 
CC[C@H](C)[C@H](NC(=O)[C@H](CCCCN)NC(=O)[C@H](CCC(=O)O)NC(=O)[C@H](CCCCN)NC(=O)[C@H](CO)NC(=O)[C@H](CCCCN)NC(=O)[C@H](CCCNC(=N)N)NC(=O)[C@H](Cc1ccccc1)NC(=O)[C@H](Cc1ccccc1)NC(=O)[C@H](CC(=O)O)NC(=O)CNC(=O)[C@H](CC(C)C)NC(=O)[C@@H](N)CC(C)C)C(=O)NCC(=O)N[C@@H](CCCCN)C(=O)N[C@@H](CCC(=O)O)C(=O)N[C@@H](Cc1ccccc1)C(=O)N[C@@H](CCCCN)C(=O)N[C@@H](CCCNC(=N)N)C(=O)N[C@H](C(=O)N[C@H](C(=O)N[C@@H](CCC(N)=O)C(=O)N[C@@H](CCCNC(=N)N)C(=O)N[C@H](C(=O)N[C@@H](CCCCN)C(=O)N[C@@H](CC(=O)O)C(=O)N[C@@H](Cc1ccccc1)C(=O)N[C@@H](CC(C)C)C(=O)N[C@@H](CCCNC(=N)N)C(=O)N[C@@H](CC(N)=O)C(=O)N[C@@H](CC(C)C)C(=O)N[C@@H](C)C(=O)N1CCC[C@H]1C(=O)N[C@@H](CCCNC(=N)N)C(=O)O)[C@@H](C)CC)C(C)C)[C@@H](C)CC [LL-34—V32A] (H-LLGDFFRKSKEKIGKEFKRIVQRIKDFLRNLAPR-OH) |  |  | reduced secretion of IL-6 protein | 10 | 
CC[C@H](C)[C@H](NC(=O)[C@H](CCCCN)NC(=O)[C@H](CCC(=O)O)NC(=O)[C@H](CCCCN)NC(=O)[C@H](CO)NC(=O)[C@H](CCCCN)NC(=O)[C@H](CCCNC(=N)N)NC(=O)[C@H](Cc1ccccc1)NC(=O)[C@H](Cc1ccccc1)NC(=O)[C@H](CC(=O)O)NC(=O)CNC(=O)[C@H](CC(C)C)NC(=O)[C@@H](N)CC(C)C)C(=O)NCC(=O)N[C@@H](CCCCN)C(=O)N[C@@H](CCC(=O)O)C(=O)N[C@@H](Cc1ccccc1)C(=O)N[C@@H](CCCCN)C(=O)N[C@@H](CCCNC(=N)N)C(=O)N[C@H](C(=O)N[C@H](C(=O)N[C@@H](CCC(N)=O)C(=O)N[C@@H](CCCNC(=N)N)C(=O)N[C@H](C(=O)N[C@@H](CCCCN)C(=O)N[C@@H](CC(=O)O)C(=O)N[C@@H](Cc1ccccc1)C(=O)N[C@@H](CC(C)C)C(=O)N[C@@H](CCCNC(=N)N)C(=O)N[C@@H](CC(N)=O)C(=O)N[C@@H](CC(C)C)C(=O)N[C@H](C(=O)N1CCC[C@H]1C(=O)N[C@@H](CCCNC(=N)N)C(=O)O)C(C)C)[C@@H](C)CC)C(C)C)[C@@H](C)CC [LL-34—parent] (H-LLGDFFRKSKEKIGKEFKRIVQRIKDFLRNLVPR-OH) |  |  |  | 5 | 25 (≈ 104 µg/mL)
